Measurements as given in ChEMBL document CHEMBL1201862, “PubChem BioAssay data set” (2004).
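A five-concentration, 48-hour dose response in 96-well plates underlies each endpoint, interpolated linearly between surrounding concentrations. GI50: concentration for 50% inhibition of growth.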 The source made the active and inactive calls. Cut-off read from the data, not from the text of the source: active = GI50 up to about 1.1 µM and inactive = higher.

Experiments:
Experiment in all cases: NCI-60 cell line screen, 48 h
CCRF-CEM = system: CCRF-CEM
RXF 393 = system: RXF 393
UACC-257 = system: UACC-257
UACC-62 = system: UACC-62
M14 = system: M14
HCT-15 = system: HCT-15
EKVX = system: EKVX
SK-MEL-5 = system: SK-MEL-5
OVCAR-8 = system: OVCAR-8
OVCAR-4 = system: OVCAR-4
SW-620 = system: SW-620
NCI-H226 = system: NCI-H226
IGROV-1 = system: IGROV-1
A498 = system: A498
HOP-62 = system: HOP-62
TK-10 = system: TK-10
SK-MEL-2 = system: SK-MEL-2
CAKI-1 = system: CAKI-1
SF-539 = system: SF-539
SK-OV-3 = system: SK-OV-3

Structure (SMILES)	GI50 (CCRF-CEM)	GI50 (RXF 393)	GI50 (UACC-257)	GI50 (UACC-62)	GI50 (M14)	GI50 (HCT-15)	GI50 (EKVX)	GI50 (SK-MEL-5)	GI50 (OVCAR-8)	GI50 (OVCAR-4)	GI50 (SW-620)	GI50 (NCI-H226)	GI50 (IGROV-1)	GI50 (A498)	GI50 (HOP-62)	GI50 (TK-10)	GI50 (SK-MEL-2)	GI50 (CAKI-1)	GI50 (SF-539)	GI50 (SK-OV-3)
c1ccc2c(c1)c1ccccc1n2Cn1c2ccccc2c2ccccc21	> 100 µM (inactive)	> 100 µM (inactive)	> 100 µM (inactive)	> 100 µM (inactive)	> 100 µM (inactive)	> 100 µM	> 100 µM (inactive)	> 100 µM (inactive)	> 100 µM (inactive)	> 100 µM (inactive)	> 100 µM (inactive)	> 100 µM (inactive)	> 100 µM (inactive)	> 100 µM (inactive)	> 100 µM (inactive)	> 100 µM (inactive)	> 100 µM (inactive)	> 100 µM (inactive)		
CCOC(=O)/C=C(\C)c1ccc(C)cc1C	49.2 µM (inactive)	14.4 µM (inactive)	> 100 µM (inactive)		> 100 µM (inactive)	29.9 µM	> 100 µM (inactive)	34.3 µM (inactive)	> 100 µM (inactive)	> 100 µM (inactive)	17.8 µM (inactive)	> 100 µM (inactive)	> 100 µM (inactive)	> 100 µM (inactive)		33.8 µM (inactive)	45.2 µM (inactive)	> 100 µM (inactive)	> 100 µM (inactive)	
COc1ccc(C2c3cc4c(cc3OC(Nc3ccccc3)C2C)OCO4)cc1 (stereo unspecified)	14.1 µM (inactive)	33.5 µM (inactive)	75.2 µM (inactive)	52.8 µM (inactive)	85.9 µM (inactive)	33.6 µM	8.59 µM (inactive)	79.4 µM (inactive)			64.3 µM (inactive)	41.1 µM (inactive)	99.8 µM (inactive)	58.6 µM (inactive)	> 100 µM (inactive)	91.6 µM (inactive)	> 100 µM (inactive)	25.4 µM (inactive)	> 100 µM (inactive)	> 100 µM (inactive)
O=c1[nH]c2ccc([N+](=O)[O-])cc2nc1/C(=N/Nc1ccccc1)C(O)c1ccco1 (stereo unspecified)	16.6 µM (inactive)	52.8 µM (inactive)	> 100 µM (inactive)	32.2 µM (inactive)	> 100 µM (inactive)	18.2 µM	> 100 µM (inactive)	25.8 µM (inactive)	> 100 µM (inactive)	66.2 µM (inactive)	39.4 µM (inactive)	> 100 µM (inactive)	87.9 µM (inactive)		> 100 µM (inactive)	> 100 µM (inactive)	> 100 µM (inactive)		> 100 µM (inactive)	> 100 µM (inactive)
Cc1c(-c2cc3n(n2)C(c2cccs2)C(C#N)=C(c2ccccc2)N3)c(=O)n(-c2ccccc2)n1C (stereo unspecified)	> 95.1 µM (inactive)	37.4 µM (inactive)	49.2 µM (inactive)	> 100 µM (inactive)		84.1 µM	> 100 µM (inactive)	28.8 µM (inactive)	> 100 µM (inactive)	> 87.9 µM (inactive)	> 100 µM (inactive)	> 100 µM (inactive)	87.7 µM (inactive)	82.8 µM (inactive)	> 100 µM (inactive)		51.6 µM (inactive)	11.1 µM (inactive)	> 100 µM (inactive)	> 100 µM (inactive)
CCN(CC)CCSc1nc(-c2c[nH]c3nc(C)ccc3c2=O)n[nH]1	> 100 µM (inactive)	> 100 µM (inactive)	> 100 µM (inactive)	> 100 µM (inactive)	> 100 µM (inactive)	> 100 µM	> 100 µM (inactive)	> 100 µM (inactive)	> 100 µM (inactive)	> 100 µM (inactive)	> 100 µM (inactive)	> 100 µM (inactive)	> 100 µM (inactive)	> 100 µM (inactive)	> 100 µM (inactive)	> 100 µM (inactive)	> 100 µM (inactive)	> 100 µM (inactive)		
CC1=NN(C(=O)c2ccccc2)C(=O)C1/N=N/c1ccccc1C(=O)O (stereo unspecified)	3.81 µM (inactive)	2.47 µM (inactive)		3.1 µM (inactive)		4.85 µM	> 100 µM (inactive)	34 µM (inactive)	7.87 µM (inactive)	5.62 µM (inactive)	16.8 µM (inactive)	9.46 µM (inactive)	4.14 µM (inactive)	5.47 µM (inactive)	6.15 µM (inactive)		6.21 µM (inactive)	6.53 µM (inactive)	3.78 µM (inactive)	> 25.2 µM (inactive)
Clc1ccc(COc2ccccc2/C=N/c2c(-c3ccco3)nc3ccccn23)c(Cl)c1	12.9 µM (inactive)	20.9 µM (inactive)	39.1 µM (inactive)	33.3 µM (inactive)	26.1 µM (inactive)	23.3 µM	17.4 µM (inactive)	15.8 µM (inactive)	26.5 µM (inactive)	24.9 µM (inactive)	26.2 µM (inactive)	25.7 µM (inactive)	25.2 µM (inactive)	> 100 µM (inactive)	32.9 µM (inactive)	36.2 µM (inactive)	20.2 µM (inactive)	32.5 µM (inactive)	21.1 µM (inactive)	> 100 µM (inactive)
Cc1c2cc[n+](C)cc2c(COC2OC(CO)C(O)C2O)c2c3ccccc3n(C)c12 (stereo unspecified)	> 87.9 µM (inactive)	> 100 µM (inactive)	> 100 µM (inactive)	> 96.8 µM (inactive)		> 100 µM	> 95.5 µM (inactive)	61.8 µM (inactive)	99.1 µM (inactive)	> 100 µM (inactive)	> 100 µM (inactive)	28.6 µM (inactive)	> 100 µM (inactive)	> 100 µM (inactive)	58.6 µM (inactive)		> 100 µM (inactive)	> 100 µM (inactive)	90.4 µM (inactive)	> 88.7 µM (inactive)
CN(C)CCNC(=O)c1cccc2c1Nc1ccccc1S2	12.4 µM (inactive)	9.35 µM (inactive)	13.7 µM (inactive)	14.6 µM (inactive)		16 µM	5.45 µM (inactive)	13.2 µM (inactive)	15.8 µM (inactive)	13.4 µM (inactive)	16.7 µM (inactive)	11.5 µM (inactive)	11.3 µM (inactive)	10.6 µM (inactive)	15.7 µM (inactive)		16.3 µM (inactive)		15.2 µM (inactive)	16.1 µM (inactive)
CCC1(C)NN=c2s/c(=C/c3ccc(OC)cc3)c(=O)n2N1 (stereo unspecified)	> 100 µM (inactive)	49.4 µM (inactive)		> 100 µM (inactive)	> 100 µM (inactive)		> 100 µM (inactive)	> 100 µM (inactive)	> 100 µM (inactive)	35.7 µM (inactive)	> 100 µM (inactive)	> 100 µM (inactive)	> 100 µM (inactive)		> 100 µM (inactive)	> 100 µM (inactive)	> 100 µM (inactive)	> 100 µM (inactive)	90.6 µM (inactive)	> 100 µM (inactive)
O=C1CC2(CCC(O)(c3ccccc3)C(C(=O)c3ccccc3)C2)C(=O)c2ccccc2N1 (stereo unspecified)	46.8 µM (inactive)	> 100 µM (inactive)	> 100 µM (inactive)	> 100 µM (inactive)	> 100 µM (inactive)	> 100 µM	> 100 µM (inactive)	> 100 µM (inactive)	> 100 µM (inactive)	38.2 µM (inactive)	> 100 µM (inactive)	> 100 µM (inactive)	> 100 µM (inactive)	> 100 µM (inactive)	> 100 µM (inactive)	> 100 µM (inactive)	> 100 µM (inactive)	> 100 µM (inactive)	> 100 µM (inactive)	> 100 µM (inactive)
Cc1oc2nc(N(C)C)n3cnnc3c2c1C	> 100 µM (inactive)	> 100 µM (inactive)	> 100 µM (inactive)	> 100 µM (inactive)	> 100 µM (inactive)	> 100 µM	> 100 µM (inactive)	> 100 µM (inactive)	> 100 µM (inactive)	> 100 µM (inactive)	> 100 µM (inactive)	> 100 µM (inactive)	> 100 µM (inactive)	> 100 µM (inactive)	> 100 µM (inactive)	> 100 µM (inactive)	> 100 µM (inactive)	> 100 µM (inactive)	> 100 µM (inactive)	> 100 µM (inactive)
CCc1cc2c(oc3cc4ccccc4cc32)c(=O)[nH]1		> 10 µM (inactive)	> 10 µM (inactive)		> 10 µM (inactive)	> 10 µM	> 10 µM (inactive)		> 10 µM (inactive)	> 10 µM (inactive)	> 10 µM (inactive)	> 10 µM (inactive)	> 10 µM (inactive)			> 10 µM (inactive)	> 10 µM (inactive)		> 10 µM (inactive)	
CNc1cc2c(c3ccccc13)C(CCl)CN2C(=O)c1cc2cc(OC)c(OC)c(OC)c2[nH]1 (stereo unspecified)	0.00053 µM (active)	< 0.01 µM (active)	0.00541 µM (active)	0.000588 µM (active)	0.00235 µM (active)	0.00137 µM	0.00381 µM (active)	0.00146 µM (active)	0.00123 µM (active)	< 0.01 µM (active)	0.00144 µM (active)	0.0138 µM (active)	0.00243 µM (active)	0.00261 µM (active)	0.00281 µM (active)	0.00218 µM (active)	0.00785 µM (active)	0.000703 µM (active)	0.00196 µM (active)	0.0116 µM (active)
N=C(N)c1csc([C@@H]2O[C@H](CO)[C@@H](O)[C@H]2O)n1	> 100 µM (inactive)	> 100 µM (inactive)	> 100 µM (inactive)		> 100 µM (inactive)	> 100 µM	> 100 µM (inactive)	> 100 µM (inactive)	> 100 µM (inactive)	> 100 µM (inactive)	> 100 µM (inactive)	89.5 µM (inactive)	> 100 µM (inactive)			> 100 µM (inactive)	> 100 µM (inactive)	> 100 µM (inactive)	> 100 µM (inactive)	> 100 µM (inactive)
